In US20040009921A1, “Methods and compositions for the treatment of cancer” (Allergan, Inc., priority 2002, published 2004):

How the values were obtained:
[1] = system: β-catenin-mediated gene transactivation (TCF/LEF reporter Topflash); test: Topflash reporter gene assay in HEK293 cells and stable lines RBC, CAT; type: cell-based, human
Experimental: Cultured cells were transfected with 100 ng of reporter gene Topflash® together with expression vectors indicated under each graph. […] (A) Data from HEK293 cells co-transfected with wild type or mutant β-catenin (200 ng) and RXRα (20 ng). (B) CAT, a stable cell line that overexpresses β-catenin (left panel). RBC, a stable cell line that overexpresses both RXRα and β-catenin. (C) SW480, a colorectal cancer cell line, was transfected with 100 ng of Topflash®. The amount of RXRα cotransfected was indicated below the X axis. Reporter activity on the Y axis is expressed as either Luciferase Unit or percentage of activity in cells transfected with Topflash® alone.
For transfection of the HEK293 cell line, cells were seeded at a density of 50,000 cells per well in 24-well plates coated with poly-D-Lysine (Becton Dickinson). After 24 hours, the luciferase-based reporter plasmids and expression vectors were cotransfected into cells using Fugene according to the manufacturer's instruction (Roche Applied Science). To monitor the efficiency of transfection, either 15 ng of phRG-TK Renilla or 100 ng of CMX-LacZ DNA were cotransfected. […] Harvested cells were lysed, and luciferase activity was measured as previously described (de Wet, J. R., Wood, K. V., DeLuca, M., Helinski, D. R., Subramani, S. (1987) Mol. Cell. Biol. 7, 725-737). In cells transfected with the LacZ control gene, β-galactosidase activity was measured by standard colorimetric assays. Renilla reniformis […] activity was determined using the Dual-Luciferase Reporter 100 Assay System (Promega Corporation, 2800 Woods Hollow Road, Madison Wis. USA 53711). The experimental reporter gene activity was normalized against either β-galactosidase or Renilla GFP activity. Values represent the mean +/− SEM of quadruplicate determinations.
To investigate whether RXR and its ligands affect β-catenin-mediated gene transactivation, the APC-positive human HEK293 cells were transfected with the reporter gene Topflash®. This reporter gene contains multiple copies of responsive elements for the DNA-binding transcription activators, TCF/LEF, upstream of the basic luciferase reporter gene construct tk-Luc. The tk-Luc portion of he reporter plasmid consists of a minimal gene promoter from HSV tk gene and a coding sequence for luciferase. Transactivation of this reporter by TCF/LEF can be affected by endogenous as well as overexpressed β-catenin, which interacts with TCF/LEF as a co-activator.

[2] = target: T1, RARα (Homo sapiens, UniProt P10276); test: Western blotting of RAR protein in transfected HEK293 cells; type: cell-based; settings: HEK293 co-expressing RXRα with RARα
T1 construct: expressed in transfected cells; host or cells: HEK293
T1 sequence (P10276 1-462): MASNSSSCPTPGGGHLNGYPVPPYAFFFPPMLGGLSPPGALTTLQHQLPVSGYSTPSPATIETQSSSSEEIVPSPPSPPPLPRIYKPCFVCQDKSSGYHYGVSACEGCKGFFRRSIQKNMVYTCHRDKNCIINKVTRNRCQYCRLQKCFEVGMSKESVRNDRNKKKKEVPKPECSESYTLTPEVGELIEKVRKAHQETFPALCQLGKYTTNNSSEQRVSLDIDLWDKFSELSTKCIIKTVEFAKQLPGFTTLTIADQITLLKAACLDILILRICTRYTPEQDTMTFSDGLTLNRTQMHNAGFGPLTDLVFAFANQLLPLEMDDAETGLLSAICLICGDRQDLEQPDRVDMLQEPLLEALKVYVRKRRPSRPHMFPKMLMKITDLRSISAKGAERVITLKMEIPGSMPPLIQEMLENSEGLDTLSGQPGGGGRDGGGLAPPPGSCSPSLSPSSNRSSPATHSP
Experimental: HEK293 cells transfected with expression vectors for β-catenin (4 μg) and RXRs (2 μg) or RARs (2 μg) and treated with ligands at concentrations indicated at the top of each gel. Protein levels were detected by Western blotting as shown in this figure. β-catenin and RARs were detected by HRP-conjugated antibodies against their V5 tag. RXRs were detected by HRP-conjugated antibodies against their Flag tag. […] In this experiment, the amount of expression vectors for RXRα and RARs used in transfection was 1 μg.
HEK293 cells were seeded at a density of 2×10 per dish were seeded into 100-mm dishes and cultured overnight in DMEM containing 10% FBS. Cells were transfected with 1-4 μg of various cDNA or parental expression vectors (8 μg of DNA in total) using Lipofectamine®. Five hours after transfection, cells were fed with fresh culture media DMEM containing 10% charcoal-treated FBS with vehicle DMSO or retinoids prepared in DMSO. […]
Total cell lysates were homogenized by passing through a QIAshredder® (Qiagen) and cleared from insoluble materials by centriftigation at 12,000 g. Protein concentration was determined using a Bradford total protein assay kit (Bio-Rad). […]

With `CC(/C=C/[C@@H]1C[C@]1(C)c1ccc2c(c1)C(C)(C)CCC2(C)C)=C\C(=O)O` [AGN 4204] as the molecule, how does the “Topflash reporter activity from endogenous β-catenin” value ([1]; HEK293, endogenous β-catenin, 0.1 μM, 17 hours) read?
Its value is “moderately reduced”.

And the “ΔNβ-catenin mutant activity in transactivating Topflash” value ([1]; HEK293, ΔNβ-catenin in the presence of RXRα)?
The value was “significantly impaired”.

What about the “decrease in reporter activity” value ([1]; HEK293 cotransfected with β-catenin and RXRα, 0.1 μM, 17 hours) of the same molecule?
The value was 90%.

What about the “decrease in reporter activity” value ([1]; stable line CAT overexpressing only β-catenin, 0.1 μM, 17 hours) of the same molecule?
Its value is 30%.

And the “decrease in reporter activity” value ([1]; stable line RBC expressing β-catenin and RXRα, 0.1 μM, 17 hours)?
The value was “decrease in the reporter activity was also observed”.

And the “degradation of RARα” value [2]?
The value was “RXR-ligand-dependent degradation”.
